Laboratory results taken from ChEMBL document CHEMBL6096636 (Bioorg Med Chem, 2024).
The source made the active and inactive calls. No cut-off for these calls is given here.

How the values were obtained:
[1] = Selectivity index, ratio of IC50 for human HepG2 cells to IC50 for erythrocytic stage of Plasmodium falciparum 3D7; type: toxicity, cell-based; details: read-out: Ratio IC50
[2] = Metabolic stability in mouse liver microsomes assessed as half-life measured upto 45 mins in presence of NADPH by LC-MS/MS analysis; type: ADME, Microsome
Plasmodium falciparum [3] = experiment: Inhibition of asynchronous ring stage Plasmodium falciparum 3D7 HDAC assessed as increase in histone H3 acetylation level at 20 times of IC50 concentration incubated for 2 hrs by Western blot analysis
Histone deacetylase 1 = Histone deacetylase 1 (Homo sapiens, UniProt Q13547); experiment: Inhibition of recombinant human HDAC1 using Ac-peptide as substrate preincubated for 15 mins followed by substrate addition and measured after 60 mins
[4] = Apparent clearance during terminal phase in female Balb/c mouse at 5 mg/kg, ip measured after 24 hrs by LC-MS/MS analysis; type: ADME, organism-based; details: in vivo, read-out: CLz/F (converted)
[5] = Tmax in female Balb/c mouse at 5 mg/kg, ip measured after 24 hrs by LC-MS/MS analysis; type: ADME, organism-based; details: in vivo
Histone deacetylase 3 = Histone deacetylase 3 (Homo sapiens, UniProt O15379); experiment: Inhibition of recombinant human HDAC3 using Ac-peptide as substrate preincubated for 15 mins followed by substrate addition and measured after 60 mins
[6] = Metabolic stability in mouse liver microsomes assessed as clearance measured upto 45 mins in presence of NADPH by LC-MS/MS analysis; type: ADME, Microsome; details: read-out: CLH
[7] = Cytotoxicity against HEK293T cells assessed as inhibition of cell growth incubated for 72 hrs by CCK8 assay; type: toxicity, cell-based, HEK-293T; details: human
[8] = AUC (0 to infinity) in female Balb/c mouse at 5 mg/kg, ip measured after 24 hrs by LC-MS/MS analysis; type: ADME, organism-based; details: in vivo
[9] = Cytotoxicity against human HepG2 cells assessed as inhibition of cell growth incubated for 72 hrs by CCK8 assay; type: toxicity, cell-based
Plasmodium yoelii = experiment: Antimalarial activity against erythrocytic stage of Plasmodium yoelli infected in female mouse model assessed as reduction in parasitemia at 30 mg/kg, ip pre-infected with parasite followed by twice daily compound administration from day 3 to 6 by microscopic analysis; type: functional, organism-based; details: time 4.0 day
[10] = Apparent volume of distribution during terminal phase in female Balb/c mouse at 5 mg/kg, ip measured after 24 hrs by LC-MS/MS analysis; type: ADME, organism-based; details: in vivo, read-out: Vz/F
Plasmodium falciparum [11] = experiment: microbe, parasite or virus in culture; details: 3D7, 72 h
Description: Antimalarial activity against erythrocytic stage of Plasmodium falciparum 3D7 assessed as inhibition of growth incubated for 72 hrs by SYBR green I based assay

Plasmodium falciparum [12] = experiment: microbe, parasite or virus in culture; details: 72 h
Description: Antimalarial activity against quinine and chloroquine resistant Plasmodium falciparum clinical isolate C2A assessed as inhibition of growth incubated for 72 hrs by SYBR green I based assay

[13] = Selectivity index, ratio of IC50 for HEK293T cells to IC50 for erythrocytic stage of Plasmodium falciparum 3D7; type: toxicity, cell-based; details: human, read-out: Ratio IC50
Plasmodium falciparum [14] = experiment: Antimalarial activity against sulfadoxine-pyrimethamine and mefloquine resistant Plasmodium falciparum clinical isolate CP286 assessed as inhibition of growth incubated for 72 hrs by SYBR green I based assay; type: functional, organism-based
[15] = Cmax in female Balb/c mouse at 5 mg/kg, ip measured after 24 hrs by LC-MS/MS analysis; type: ADME, organism-based; details: in vivo
Plasmodium falciparum [16] = experiment: microbe, parasite or virus in culture; details: 72 h; remark: listed apart in the source
Description: Antimalarial activity against chloroquine resistant Plasmodium falciparum clinical isolate GB4 assessed as inhibition of growth incubated for 72 hrs by SYBR green I based assay

[17] = target: T1, Protein deacetylase HDAC6 (Homo sapiens, UniProt Q9UBN7); experiment: Inhibition of recombinant human HDAC6 using Ac-peptide as substrate preincubated for 15 mins followed by substrate addition and measured after 60 mins
T1 sequence (Q9UBN7 whole entry): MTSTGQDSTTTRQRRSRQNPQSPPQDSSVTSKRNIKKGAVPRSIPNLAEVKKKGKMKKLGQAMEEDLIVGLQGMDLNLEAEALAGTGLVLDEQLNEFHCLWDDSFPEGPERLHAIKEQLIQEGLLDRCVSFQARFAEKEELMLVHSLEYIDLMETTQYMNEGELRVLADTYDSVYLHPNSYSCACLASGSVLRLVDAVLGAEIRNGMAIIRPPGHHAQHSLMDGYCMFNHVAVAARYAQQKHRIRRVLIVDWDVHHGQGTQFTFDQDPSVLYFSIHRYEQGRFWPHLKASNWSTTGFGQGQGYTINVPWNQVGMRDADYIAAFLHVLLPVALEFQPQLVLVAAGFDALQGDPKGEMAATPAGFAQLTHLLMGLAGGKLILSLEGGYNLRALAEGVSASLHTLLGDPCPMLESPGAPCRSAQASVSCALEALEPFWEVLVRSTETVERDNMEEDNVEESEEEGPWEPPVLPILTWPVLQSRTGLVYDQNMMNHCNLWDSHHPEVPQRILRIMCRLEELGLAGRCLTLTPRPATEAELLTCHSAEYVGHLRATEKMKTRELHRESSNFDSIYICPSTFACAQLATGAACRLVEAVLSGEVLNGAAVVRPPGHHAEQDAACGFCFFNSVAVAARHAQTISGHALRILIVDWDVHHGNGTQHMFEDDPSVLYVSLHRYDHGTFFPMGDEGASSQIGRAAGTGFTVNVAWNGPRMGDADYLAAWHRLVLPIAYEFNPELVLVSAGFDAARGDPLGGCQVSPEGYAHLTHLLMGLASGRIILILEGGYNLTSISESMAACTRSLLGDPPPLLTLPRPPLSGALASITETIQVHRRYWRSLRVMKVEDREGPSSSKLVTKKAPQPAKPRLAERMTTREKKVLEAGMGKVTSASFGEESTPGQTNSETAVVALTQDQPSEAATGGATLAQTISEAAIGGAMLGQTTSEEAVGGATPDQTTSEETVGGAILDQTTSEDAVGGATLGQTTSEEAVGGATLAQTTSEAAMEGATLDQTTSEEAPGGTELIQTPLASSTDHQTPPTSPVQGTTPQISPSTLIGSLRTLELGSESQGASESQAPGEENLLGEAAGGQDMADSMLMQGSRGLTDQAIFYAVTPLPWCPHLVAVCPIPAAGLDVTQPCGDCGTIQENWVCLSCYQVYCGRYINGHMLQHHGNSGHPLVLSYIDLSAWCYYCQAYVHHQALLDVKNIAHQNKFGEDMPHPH

Histone deacetylase 2 = Histone deacetylase 2 (Homo sapiens, UniProt Q92769); experiment: Inhibition of recombinant human HDAC2 using Ac-peptide as substrate preincubated for 15 mins followed by substrate addition and measured after 60 mins
[18] = Toxicity in female mouse model infected with erythrocytic stage of Plasmodium yoelli assessed as animal death at 30 mg/kg, ip pre-infected with parasite followed by twice daily compound administration from day 3 to 6; type: organism-based; details: in vivo, 96 h, time 4 day
Plasmodium falciparum [19] = experiment: microbe, parasite or virus in culture; details: Dd2, 72 h
Description: Antimalarial activity against erythrocytic stage of chloroquine-resistant Plasmodium falciparum Dd2 assessed as inhibition of growth incubated for 72 hrs by SYBR green I based assay

[20] = Half-life in female Balb/c mouse at 5 mg/kg, ip measured after 24 hrs by LC-MS/MS analysis; type: ADME, organism-based; details: in vivo

Sequence of Histone deacetylase 2 (Q92769 whole entry): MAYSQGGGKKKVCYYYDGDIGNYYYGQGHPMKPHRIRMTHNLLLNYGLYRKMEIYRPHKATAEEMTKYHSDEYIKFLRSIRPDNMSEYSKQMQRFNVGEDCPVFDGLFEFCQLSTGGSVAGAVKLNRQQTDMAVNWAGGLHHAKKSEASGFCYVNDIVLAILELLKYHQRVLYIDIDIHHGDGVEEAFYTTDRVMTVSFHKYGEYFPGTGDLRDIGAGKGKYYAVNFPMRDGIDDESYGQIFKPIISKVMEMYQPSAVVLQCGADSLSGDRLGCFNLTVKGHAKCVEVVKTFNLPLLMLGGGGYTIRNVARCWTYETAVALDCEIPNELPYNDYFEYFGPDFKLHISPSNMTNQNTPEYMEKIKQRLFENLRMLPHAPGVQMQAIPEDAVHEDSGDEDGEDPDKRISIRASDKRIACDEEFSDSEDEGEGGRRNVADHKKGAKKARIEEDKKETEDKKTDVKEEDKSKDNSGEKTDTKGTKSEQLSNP
Sequence of Histone deacetylase 1 (Q13547 whole entry): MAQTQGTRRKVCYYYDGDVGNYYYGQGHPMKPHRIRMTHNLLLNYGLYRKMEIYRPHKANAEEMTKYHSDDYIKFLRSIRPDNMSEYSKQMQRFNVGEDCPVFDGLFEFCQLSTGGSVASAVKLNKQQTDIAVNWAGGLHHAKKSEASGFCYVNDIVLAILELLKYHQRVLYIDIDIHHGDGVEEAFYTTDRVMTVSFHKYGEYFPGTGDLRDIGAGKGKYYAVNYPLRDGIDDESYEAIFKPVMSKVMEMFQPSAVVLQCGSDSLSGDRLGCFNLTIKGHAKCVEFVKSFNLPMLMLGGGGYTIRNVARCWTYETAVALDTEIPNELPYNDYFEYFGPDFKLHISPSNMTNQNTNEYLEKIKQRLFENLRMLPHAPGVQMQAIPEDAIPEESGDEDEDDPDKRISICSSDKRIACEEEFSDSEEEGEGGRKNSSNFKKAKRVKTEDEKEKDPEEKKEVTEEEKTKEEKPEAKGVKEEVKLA
Sequence of Histone deacetylase 3 (O15379 whole entry): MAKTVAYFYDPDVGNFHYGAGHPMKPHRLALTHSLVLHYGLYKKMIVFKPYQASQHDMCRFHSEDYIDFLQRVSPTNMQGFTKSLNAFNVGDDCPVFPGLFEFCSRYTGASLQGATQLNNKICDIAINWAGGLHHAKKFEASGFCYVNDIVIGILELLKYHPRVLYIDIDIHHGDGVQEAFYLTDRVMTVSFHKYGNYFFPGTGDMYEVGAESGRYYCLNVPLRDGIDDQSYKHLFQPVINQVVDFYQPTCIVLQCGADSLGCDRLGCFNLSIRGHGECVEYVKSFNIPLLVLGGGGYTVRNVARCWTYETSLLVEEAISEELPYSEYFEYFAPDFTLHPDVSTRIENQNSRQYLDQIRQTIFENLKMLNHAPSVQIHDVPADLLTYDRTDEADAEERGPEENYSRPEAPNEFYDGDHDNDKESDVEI

In the case of `Cc1ccc2c(CN[C@H]3CC[C@@H](Nc4ncc(C(=O)NO)cn4)CC3)cn(C)c2c1.Cl`, the selectivity ratio [1] is reported as 469, the half-life [2] is reported as 39 min and the inhibition (Plasmodium falciparum [3]) is reported as “Active”. It also gave an IC50 (Histone deacetylase 1) of 4.9 nM, a CL/F [4] of 97.7 mL/min/kg and a Tmax [5] of 15 min. The IC50 (Histone deacetylase 3) was 23 nM, the CLint scaled [6] was 140 mL/min/kg and the IC50 at 72 h [7] was 7750 nM. For the same compound, the AUC(0-inf) [8] was 853 ng·h/mL, the IC50 at 72 h [9] was 5290 nM and the Activity (Plasmodium yoelii) was “Active; Only Slight Recurrence Of Parasitemia Was Observed Upon Cessation Of Treatment”. The Vd/F [10] was 16.1 L/kg, the IC50 (Plasmodium falciparum [11]) was 11.3 nM and the IC50 (Plasmodium falciparum [12]) was 24.7 nM. It also gave a selectivity ratio [13] of 687, an IC50 (Plasmodium falciparum [14]) of 28.4 nM and a Cmax [15] of 803 ng/mL. It also gave an IC50 (Plasmodium falciparum [16]) of 29.5 nM, an IC50 [17] of 60 nM and an IC50 (Histone deacetylase 2) of 11 nM. For the same compound, the Activity [18] was “Toxic”, the IC50 (Plasmodium falciparum [19]) was 19.4 nM and the half-life [20] was 114 min.
